What was measured:
[1] = molecular target: T1, purified TRAAK channels (Homo sapiens, UniProt Q9NYG8); assay: UV crosslinking and labeling of purified TRAAK channel; format: binding; conditions: TRAAK 3 μM, 254 nm UV 30 seconds, streptavidin-HRP detection
T1 sequence (Q9NYG8 1-393): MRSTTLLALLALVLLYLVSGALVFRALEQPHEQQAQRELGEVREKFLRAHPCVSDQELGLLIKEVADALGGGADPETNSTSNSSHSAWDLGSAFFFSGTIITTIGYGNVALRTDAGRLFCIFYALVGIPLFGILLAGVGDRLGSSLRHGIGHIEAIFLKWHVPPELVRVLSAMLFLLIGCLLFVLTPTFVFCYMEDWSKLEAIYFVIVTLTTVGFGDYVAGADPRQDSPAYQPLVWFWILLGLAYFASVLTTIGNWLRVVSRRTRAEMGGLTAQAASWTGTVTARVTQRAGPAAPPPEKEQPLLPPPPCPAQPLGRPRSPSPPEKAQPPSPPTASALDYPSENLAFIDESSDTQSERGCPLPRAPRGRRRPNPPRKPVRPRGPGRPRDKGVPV
Experimental: FIG. 15 Crosslinking and labeling of TRAAK channel with ML67-151; crosslinking of ML67-151 to purified TRAAK channels (3 μM) following exposure to 254 nm UV light for 30 seconds; left is SDS-PAGE of purified TRAAK, top middle is streptavidin-HRP detection following addition of clickable biotin; bottom middle is Ponceau S staining
Crosslinking of ML67-151 to purified TRAAK channels (3 μM) following exposure to 254 nm UV light for 30 seconds is shown in the top middle blot of FIG. 15, including streptavidin-HRP detection following addition of clickable biotin.

[2] = molecular target: T2, TREK-1 (Mus musculus, UniProt P97438); assay: Modulation of TREK-1 by select compounds (agonist activity), Table 3; format: cell-based, Murine; conditions: 50 μM
T2 construct: expressed in transfected cells
T2 sequence (P97438 1-411 isoform P97438-2): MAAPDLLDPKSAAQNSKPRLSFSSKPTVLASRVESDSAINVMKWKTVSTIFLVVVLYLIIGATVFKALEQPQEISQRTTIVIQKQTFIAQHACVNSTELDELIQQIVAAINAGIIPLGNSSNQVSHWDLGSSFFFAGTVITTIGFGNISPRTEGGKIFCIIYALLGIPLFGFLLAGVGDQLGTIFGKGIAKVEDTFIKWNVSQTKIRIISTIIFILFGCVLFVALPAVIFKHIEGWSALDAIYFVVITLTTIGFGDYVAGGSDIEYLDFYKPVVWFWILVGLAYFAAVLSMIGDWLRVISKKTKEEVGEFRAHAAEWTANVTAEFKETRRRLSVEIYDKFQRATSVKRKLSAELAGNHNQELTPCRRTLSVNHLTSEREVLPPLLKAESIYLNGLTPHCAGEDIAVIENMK
Experimental: Two-electrode voltage clamp recordings were performed from defolliculated stage V-VI Xenopus oocytes 24-48 hours after injection with 0.015-6.0 ng cRNA, using microelectrodes (0.3-3.0 MΩ) filled with 3M KCl. […] Recording solutions (mM): 2K (96 NaCl, 2 KCl, 1.8 CaCl2, 2 MgCl2), 90K (90 KCl, 8 NaCl, 1.8 CaCl2, 2 MgCl2), were buffered 5 mM HEPES pH 7.4. For K2P recordings, currents we elicited by a 1 second long ramp from −150 to +50 mV from a holding potential of −80 mV (2K), or −100 to +50 mV from a holding potential of 0 mV (90K). For KCNQ2 recordings, currents were elicited by a step protocol from −120 to 60 mV, in 20 mV increments, from a holding potential of −80 mV. […] Currents were elicited by a 1 second long ramp from −150 to +50 mV from a holding potential of −80 mV.

% activity at 50 μM [2]: About 50% activity of ML67-33 at 50 μM
Structure (SMILES): C#Cc1ccc(S(=O)(=O)NC(=O)CCN2c3ccc(N=[N+]=[N-])cc3C3(CCCCC3)c3cc(N=[N+]=[N-])ccc32)cc1 [ML67-151, 1-(2-azido-10-{2-[(4-ethynylbenzene-sulfonyl)carbamoyl]ethyl}-10H-spiro[acridine-9,1′-cyclohexane]-7-yl)triaza-1,2-dien-2-ium]
crosslinking and labeling of TRAAK channel (in words) [1]: capable of crosslinking and labeling TRAAK channel

From patent publication US9862684B2, “Modulation of K2P channels” (The Regents of the University of California, priority 2013, dated 2018)
